# Assay results taken from patent US20230026277A1, “COMPOSITION FOR PREVENTION, ALLEVIATION, OR TREATMENT OF RESPIRATORY DISEASE” (MICROX CO., LTD., priority 2019, published 2023).
# How the values were obtained:
# Type in all cases: in vivo
# asthma-induced mice = assay: Bronchial hypersensitivity reaction (Rrs value, methacholine), asthma-induced mice; settings: oral 200 or 400 μg/kg/day 30 minutes before secondary challenge, 48 hours after, methacholine 5.0 to 50 mg/mL, FIG. 5
# Method: (§1) Eight-week-old female […] mice (Orient Bio Korea Inc., Korea) having no certain pathogen were accommodated in an aseptic laminar-flow cabinet, and bred by supplying a standard solid feed ad libitum. When the following experiment was performed, the mice were made to correspond to 7- to 8-weeks old, and all laboratory animals were managed according to the protocol approved by the Institutional Animal Care and Use Committee of the Chonbuk National University Medical School.
# (§2) Also, on days 21 and 28 from the experimental starting date, the mice were put into a plastic box (Plexiglas (Rohm & Haas, Philadelphia, Pa.) exposure chamber; 24.5 cm×40.5 cm×15.0 cm), and 1.5% ovalbumin was evaporated using an ultrasonic nebulizer (NE-U12; output 0.8 mL/min; Omron, Japan), and injected into the box for 30 minutes so that the mice inhaled the evaporated ovalbumin (secondary challenge).
# 45 mg/kg of sodium pentobarbital was intraperitoneally injected into the mice prepared in Experimental Method 1 to anesthetize the mice, and the airways were cut and an 18 gauge needle was inserted into the airways. Thereafter, the needle was connected to a small-sized animal respirator connected to a computer, and the computer system was adjusted to a respiration rate of 150 breaths per minute. Then, methacholine in the form of aerosol was fed at an increasing concentration of 5.0 to 50 mg/mL so that the mice inhaled the methacholine. Then, an airway response was measured, and indicated as an Rrs value.
# Preparation Example 3 (α,δ-NA-L-G) or α,δ N-acetyl-D-glutamine was orally administered to the asthma-induced mice of Experimental Method 1 at a concentration of 200 or 400 μg/kg/day 30 minutes before a secondary airway challenge, and the bronchial hypersensitivity reaction was measured 48 hours after the secondary challenge using the method described in Experimental Method 5. The results are shown in A and B of FIG. 5.
# [1] = system: p-cPLA and p-p38 proteins; assay: Western blot of p-cPLA and p-p38 in lung tissue of asthma-induced mice
# Method: as §2
# (§3) A tissue was extracted from each of the mice manufactured in Experimental Method 1, and finely ground to a cell level. Thereafter, the cells were lysed in a cell lysis buffer containing a protease inhibitor to obtain a cell lysate. The cell lysate was centrifuged to obtain protein. Then, an equivalent amount of the proteins obtained from the cells were loaded on an SDS-PAGE gel and electrophoresed. The proteins present in the electrophoresed gel were transferred to a PVDF membrane. […] The PVDF membrane was washed three times with a TBS-T buffer, and visualized and quantified using an ECL Western blotting detection reagent. […]
# Small interfering RNA (siRNA; hereinafter referred to as “MKP-1 siRNA”) against RNA encoding an MKP-1 protein, and control siRNA strands were purchased from SANTA CRUZ (USA). […] An effect of the MKP-1 siRNA interference was determined by measuring an expression level of the MKP-1 protein in the lung tissue through Western blot analysis. […]
# CK2α protein = assay: Western blot of CK2α protein in lung of asthma-induced mice
# Method: as §2
# as §3, with “membrane. The PVDF membrane was washed, and added to a blocking buffer in which 5% skim milk was included in a TBS-T buffer, and incubated at room temperature. Then, the PVDF membrane was incubated at room temperature with an antibody diluted 1:1,000 in a TBS-T buffer containing 3% BSA.” for “membrane.”
# Specifically, the secondary challenge (ovalbumin injection) was performed according to the method described above in Experimental Method 1, and the lungs were extracted after an hour, and then measured according to the method described above in Experimental Method 7. […] Also, the level of TNF-α corresponding to an NK-κB-dependent cytokine was measured by ELISA according to the method described above in Experimental Method 4. […]
# The secondary challenge (ovalbumin injection) was performed according to the method described above in Experimental Method 1, and the lungs were extracted after 1 or 2 hours, and then measured according to the method described above in Experimental Method 7. […]
# [2] = system: elastin, collagen, and caspase-3 proteins; assay: Western blot of elastin, collagen and caspase-3 in chronic obstructive pulmonary disease-induced mice; settings: COPD induced 30 or 60 days; oral 250 μg/kg/day for the last 15 or 30 days; FIGS. 17 and 18
# Method: as §1
# Then, the mixed solution was intranasally administered to the mice of Preparative Example 1 once a day for 30 days or 60 days from the experimental starting date. Here, a group to which only physiological saline was intranasally administered and a group to which a solution obtained by mixing 0.25 μg of LPS with 50 μL of a 10% DMSO solution was administered were used as the controls.
# as §3, with “electrophoresed.” for “electrophoresed. The proteins present in the electrophoresed gel were transferred to a PVDF membrane.”
smiles,measurement,setting,value
"CC(=O)NC(=O)CC[C@H](NC(C)=O)C(=O)O [Preparation Example 3, 2,5-diacetamido-5-oxopentanoic acid]",Rrs value (bronchial hypersensitivity reaction),asthma-induced mice,remarkably inhibited
same,levels of the p-cPLA and p-p38 proteins,"[1]; lung tissue, oral daily 200, 500 or 1,000 μg/kg/day, 10 and 30 minutes after secondary challenge, FIG. 7",decreased depending on the concentration
same,phosphorylation levels of cPLA2 and p38,"[1]; with MKP-1 siRNA treatment, same conditions as [5-1], FIG. 8",increased
same,effect for reducing the level of CK2α,"CK2α protein; 400 μg/kg/day with siRNA specific to MKP-1, FIG. 9",not observed
same,level of the CK2α protein,"CK2α protein; oral daily 400 μg/kg/day, lungs extracted an hour after secondary challenge, FIG. 9A",decreased
same,"levels of the elastin, collagen, and caspase-3 proteins",[2],decreased to that of the negative control (saline)
